Data taken from paper PMC8836905, “Structural and Biochemical Analysis of the Furan Aldehyde Reductase YugJ from Bacillus subtilis” (International Journal of Molecular Sciences, 2022).

Experiments:
[1] = target: YugJ from Bacillus subtilis (furan aldehyde reductase) (B. subtilis subsp. spizizenii) (UniProt O05239); test: SEC; gel filtration on Superdex 200 10/300 in 20 mM Tris, pH 8.0, 150 mM NaCl, 5 mM β-mercaptoethanol; eluted between 44 and 158 kDa standards
[2] = target: T1, YugJ (Bacillus spizizenii, UniProt Z9GGM4DFS4); test: X-ray crystal structure; type: binding
T1 construct: full-length residues 1-387; N-terminal His6 tag removed with thrombin; E. coli BL21(DE3); homodimer

[3] = target: T1, YugJ; test: NADPH oxidation at […] nm, HMF reduction; type: biochemical; settings: 3 mM HMF, 0.2 mM NADPH, Ni2+-bound YugJ, 50 mM HEPES pH 7.4, 150 mM NaCl, 23 °C; presumed competitive

YugJ from Bacillus subtilis (furan aldehyde reductase), sequence (O05239 whole entry): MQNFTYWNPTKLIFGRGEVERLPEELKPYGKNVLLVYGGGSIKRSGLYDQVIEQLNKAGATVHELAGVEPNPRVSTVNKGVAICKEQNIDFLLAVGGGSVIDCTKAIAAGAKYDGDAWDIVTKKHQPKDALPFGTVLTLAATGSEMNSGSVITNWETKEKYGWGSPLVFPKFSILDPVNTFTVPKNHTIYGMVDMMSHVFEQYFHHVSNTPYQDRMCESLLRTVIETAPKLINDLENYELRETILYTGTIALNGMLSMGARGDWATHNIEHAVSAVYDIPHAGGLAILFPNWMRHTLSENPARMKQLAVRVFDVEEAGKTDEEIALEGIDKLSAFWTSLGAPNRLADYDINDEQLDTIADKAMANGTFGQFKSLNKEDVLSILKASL

YugJ from Bacillus subtilis (furan aldehyde reductase) (from UniProt O05239 1-387) (enzyme)
stoichiometry N [1]: 2

NC(=O)c1ccc[n+]([C@@H]2O[C@H](COP(=O)(O)OP(=O)(O)OC[C@H]3O[C@@H](n4cnc5c(N)ncnc54)[C@H](OP(=O)(O)O)[C@@H]3O)[C@@H](O)[C@H]2O)c1 [NADP]
X-ray crystal structure ([2]; 1.65 Å with nitrate (7W9Z), 1.93 Å with Ni2+, nicotinamide disordered (7W9Y), interdomain cleft): we determined the crystal structures of YugJ in complex with NADP in two crystal forms

O=[N+]([O-])O [nitrate]
% inhibition at 360 mM lithium nitrate [3]: ~ 75%
X-ray crystal structure ([2]; 1.65 Å, with NADP, 0.3 M ammonium nitrate in crystallisation, pH 6.5, near nicotinamide ring, putative substrate site): nitrate ion forms hydrogen bonds with the nicotinamide-linked ribose moiety of NADP
